The values that follow come from PubChem BioAssay (NCI).

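Five compound concentrations were applied to cells in 96-well plates for 48 hours; endpoints were derived by simple linear interpolation of the resulting dose-response curve. GI50 marks 50% less growth. TGI marks complete inhibition of growth.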

Assay in all cases: NCI-60 cell line screen, 48 h
Test [1] relates to HCT-15 colon.
In test [2] the test system is NCI/ADR-RES ovarian.
Test [3] deals with HOP-92 NSCLC.
Test [4] concerns MOLT-4 leukemia.
Test [5] relates to NCI-H23 lung.
In test [6] the test system is ACHN renal.
Test [7] relates to SF-295 CNS.
In test [8] the test system is SF-539 CNS.
Test [9] relates to BT-549 breast.
In test [10] the test system is SK-MEL-5 melanoma.

`[O]=[W](=[O])([OH])[OH]`: the GI50 in [1], in test [2], in test [3], in test [4], in [5] and in [6] was more than 100 µM in each case. Also, the GI50 in test [7], in test [8], in [9] and in [10] was more than 100 µM throughout. The TGI in test [1], in test [2], in test [3], in test [4], in test [5] and in test [6] was more than 100 µM each time. For the same compound, the TGI in [7], in [8], in [9] and in test [10] was more than 100 µM in each case.
On to `C=C(CN(C)C)C(=O)c1ccc(OC)cc1`, for which the TGI in test [1] is 5.96 µM; in test [2], 34.2 µM; in test [3] it was 3.28 µM; in test [4] it was 2.06 µM; in test [5], 22.2 µM; in [6] it was 3.01 µM. The TGI in [7] was determined as 45.7 µM; in test [8], 9.56 µM; in [9] it was 18.1 µM; in test [10], 18 µM.
Regarding `O=C(O)C1CCCCC1C(=O)Nc1nc2ccccc2[nH]1` (centres undefined), the TGI in [1], in test [2], in test [3], in [4], in [5] and in test [6] was more than 100 µM each time. Also, the TGI in test [7], in test [8], in test [9] and in [10] was more than 100 µM each time.
Take `COCO[C@@H]1CC2C=Nc3cc(OCc4ccccc4)c(OC)cc3C(=O)N2C1` (some centres undefined): the GI50 in test [1] was 0.844 µM; in test [2], 0.703 µM; in test [3], 0.456 µM; in test [4], 0.175 µM; in test [5], 0.672 µM; in test [6], 0.338 µM. The GI50 is 0.559 µM in test [7], 0.163 µM in [8], 0.31 µM in [9] and 0.357 µM in test [10]. Further, the TGI in test [1] was determined as 6.56 µM; in test [2] it was 6.39 µM; in test [3] it was 6.83 µM; in test [5], 1.97 µM; in [6], 1.71 µM; in test [7], 12.1 µM. The results for the TGI in [8], in [9] and in test [10] were 0.815 µM, 2.39 µM and 0.908 µM, respectively.
As to `CCNC(=O)c1ccc2c(c1)nc(-c1ccc(Cl)cc1)n2-c1cc(C(C)(C)C)[nH]n1`, the GI50 in [1] is 3.26 µM; in test [2] it was 2.54 µM; in [3], 1.36 µM; in test [4], 3.49 µM; in test [5] it was 2.78 µM; in test [6] it was 3.48 µM. Besides, the GI50 was 2.82 µM in test [7], 3 µM in test [8], 4.53 µM in test [9] and 1.54 µM in test [10]. For the same compound, the TGI in test [1] was determined as 18 µM; in test [2], 9.33 µM; in [3], 7.77 µM; in [4], 25.1 µM; in [5] it was 20.3 µM; in test [6], 13.2 µM. The TGI is 11.6 µM in test [7], 11 µM in test [8], 18.2 µM in test [9] and 5.72 µM in test [10].
